How the values were obtained:
Melanocortin receptor 3 = Melanocortin receptor 3 (Homo sapiens, UniProt P41968); type: cell membranes, HEK293, Membrane; conditions: hek293; note: in other assays of this panel Not Active means under 50% inhibition at 10 µM
[1] = DRUGMATRIX: Serotonin (5-Hydroxytryptamine) 5-HT3 radioligand binding (ligand: [3H] GR-65630); type: cell membranes, Membrane; conditions: hek293; Not Active = under 50% inhibition at 10 µM
[2] = biological target: T1, Amine oxidase [flavin-containing] A (Homo sapiens, UniProt P21397); test: DRUGMATRIX: Monoamine Oxidase MAO-A enzyme inhibition (substrate: Kynuramine); set-up: species or system BTI-TN-5B1-4; conditions: bti-tn-5b1-4; Not Active = under 50% inhibition at 10 µM
T1 sequence (P21397 whole entry): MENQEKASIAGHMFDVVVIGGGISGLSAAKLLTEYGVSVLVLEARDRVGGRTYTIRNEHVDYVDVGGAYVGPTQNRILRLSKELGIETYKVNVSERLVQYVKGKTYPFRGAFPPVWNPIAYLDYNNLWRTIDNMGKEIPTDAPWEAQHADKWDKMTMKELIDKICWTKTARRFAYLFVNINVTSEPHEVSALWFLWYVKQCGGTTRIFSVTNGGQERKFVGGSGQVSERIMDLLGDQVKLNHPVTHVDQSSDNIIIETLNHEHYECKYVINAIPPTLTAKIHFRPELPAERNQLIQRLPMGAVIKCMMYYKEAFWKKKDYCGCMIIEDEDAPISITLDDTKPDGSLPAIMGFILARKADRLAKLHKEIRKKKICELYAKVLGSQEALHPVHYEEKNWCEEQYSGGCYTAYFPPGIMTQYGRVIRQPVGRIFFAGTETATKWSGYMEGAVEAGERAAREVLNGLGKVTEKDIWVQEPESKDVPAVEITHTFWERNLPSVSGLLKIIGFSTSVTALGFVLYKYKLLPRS

[3] = biological target: T2, Polyunsaturated fatty acid lipoxygenase ALOX15 (Oryctolagus cuniculus, UniProt P12530); test: biochemical; type: tissue-based, Reticulocytes; conditions: reticulocytes;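 note: inhibition of 15-lipoxygenase enzyme activity measured with linoleic acid as the substrate; in other assays of this panel Not Active means under 50% inhibition at 10 µM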
T2 sequence (P12530 whole entry): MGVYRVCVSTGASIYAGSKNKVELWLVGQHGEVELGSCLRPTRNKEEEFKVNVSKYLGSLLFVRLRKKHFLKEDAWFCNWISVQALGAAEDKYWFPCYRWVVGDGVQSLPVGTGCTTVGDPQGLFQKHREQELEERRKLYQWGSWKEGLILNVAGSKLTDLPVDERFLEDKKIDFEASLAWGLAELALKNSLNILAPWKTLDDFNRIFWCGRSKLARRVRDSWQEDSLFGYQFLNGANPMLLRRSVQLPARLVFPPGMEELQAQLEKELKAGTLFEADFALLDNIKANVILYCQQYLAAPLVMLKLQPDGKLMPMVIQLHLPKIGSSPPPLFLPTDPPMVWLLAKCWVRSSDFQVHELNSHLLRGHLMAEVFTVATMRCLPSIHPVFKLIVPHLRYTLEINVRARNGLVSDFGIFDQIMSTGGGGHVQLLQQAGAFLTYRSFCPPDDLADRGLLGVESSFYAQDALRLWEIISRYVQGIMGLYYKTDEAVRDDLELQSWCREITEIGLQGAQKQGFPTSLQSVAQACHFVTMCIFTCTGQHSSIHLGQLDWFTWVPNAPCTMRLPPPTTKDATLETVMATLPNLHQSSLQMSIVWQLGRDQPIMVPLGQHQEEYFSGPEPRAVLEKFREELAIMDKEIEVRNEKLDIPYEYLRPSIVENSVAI

[4] = biological target: Prostaglandin G/H synthase 1 (Homo sapiens, UniProt P23219); test: biochemical; type: tissue-based, Platelet; conditions: platelet;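 note: inhibition of COX-1 enzyme activity, with arachidonic acid supplied as substrate; in other assays of this panel Not Active means under 50% inhibition at 10 µM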
Prostaglandin G/H synthase 1, sequence (P23219 whole entry): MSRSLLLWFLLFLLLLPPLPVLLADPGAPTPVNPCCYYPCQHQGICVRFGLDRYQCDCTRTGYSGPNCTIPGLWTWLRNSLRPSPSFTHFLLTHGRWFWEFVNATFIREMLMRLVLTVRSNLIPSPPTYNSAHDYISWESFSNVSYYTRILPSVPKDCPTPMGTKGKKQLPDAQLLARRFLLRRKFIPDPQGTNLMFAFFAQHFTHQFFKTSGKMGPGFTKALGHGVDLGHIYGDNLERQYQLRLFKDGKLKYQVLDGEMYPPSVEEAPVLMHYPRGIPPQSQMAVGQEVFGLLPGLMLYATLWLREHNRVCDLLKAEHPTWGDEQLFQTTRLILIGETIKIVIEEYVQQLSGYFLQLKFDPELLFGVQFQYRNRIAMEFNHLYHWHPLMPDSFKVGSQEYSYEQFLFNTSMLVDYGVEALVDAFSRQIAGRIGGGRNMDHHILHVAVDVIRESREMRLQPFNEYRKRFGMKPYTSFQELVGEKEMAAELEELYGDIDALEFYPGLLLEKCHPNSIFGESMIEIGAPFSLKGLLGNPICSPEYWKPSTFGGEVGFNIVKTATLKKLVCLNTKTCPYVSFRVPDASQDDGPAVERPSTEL

[5] = biological target: Protein kinase C alpha type (Homo sapiens, UniProt P17252); type: cell-based; conditions: sf9;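 note: inhibition of PKCalpha kinase activity measured in an enzyme assay with histone as the phosphorylation substrate; in other assays of this panel Not Active means under 50% inhibition at 10 µM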
[6] = biological target: T3, Vasoactive intestinal polypeptide receptor 1 (Homo sapiens, UniProt P32241); type: cell membranes, Membrane; conditions: ht-29; note: in other assays of this panel Not Active means under 50% inhibition at 10 µM
T3 sequence (P32241 whole entry): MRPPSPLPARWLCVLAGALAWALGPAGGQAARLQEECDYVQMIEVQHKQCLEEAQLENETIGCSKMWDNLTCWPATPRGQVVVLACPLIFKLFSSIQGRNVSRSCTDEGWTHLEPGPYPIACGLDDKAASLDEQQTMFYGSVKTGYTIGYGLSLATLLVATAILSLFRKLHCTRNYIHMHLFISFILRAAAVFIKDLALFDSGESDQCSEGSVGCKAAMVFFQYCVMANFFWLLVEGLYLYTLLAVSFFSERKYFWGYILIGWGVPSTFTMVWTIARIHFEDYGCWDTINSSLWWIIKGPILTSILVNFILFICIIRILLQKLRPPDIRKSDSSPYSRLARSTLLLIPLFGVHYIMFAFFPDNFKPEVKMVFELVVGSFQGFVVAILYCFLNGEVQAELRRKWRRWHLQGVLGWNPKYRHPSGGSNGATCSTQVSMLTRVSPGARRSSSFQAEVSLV

Thromboxane-A synthase = biological target: T4, Thromboxane-A synthase (Homo sapiens, UniProt P24557); test: biochemical; type: tissue-based, Platelet; conditions: platelet
T4 sequence (P24557 whole entry): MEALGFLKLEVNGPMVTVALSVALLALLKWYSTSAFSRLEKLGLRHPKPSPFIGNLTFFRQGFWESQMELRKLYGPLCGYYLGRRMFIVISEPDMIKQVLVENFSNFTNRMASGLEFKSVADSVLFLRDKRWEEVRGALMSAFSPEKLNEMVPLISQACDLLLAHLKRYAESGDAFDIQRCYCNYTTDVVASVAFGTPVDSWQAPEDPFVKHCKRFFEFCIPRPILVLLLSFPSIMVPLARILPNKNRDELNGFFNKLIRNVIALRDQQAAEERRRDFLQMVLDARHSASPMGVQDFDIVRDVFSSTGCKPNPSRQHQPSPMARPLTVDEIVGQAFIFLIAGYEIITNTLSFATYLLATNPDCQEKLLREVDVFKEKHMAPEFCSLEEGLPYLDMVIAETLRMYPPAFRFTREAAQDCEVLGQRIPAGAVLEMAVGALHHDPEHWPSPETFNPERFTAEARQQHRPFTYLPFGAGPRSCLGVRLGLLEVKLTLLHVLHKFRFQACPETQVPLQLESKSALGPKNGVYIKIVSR

Melanocortin receptor 3, sequence (P41968 whole entry): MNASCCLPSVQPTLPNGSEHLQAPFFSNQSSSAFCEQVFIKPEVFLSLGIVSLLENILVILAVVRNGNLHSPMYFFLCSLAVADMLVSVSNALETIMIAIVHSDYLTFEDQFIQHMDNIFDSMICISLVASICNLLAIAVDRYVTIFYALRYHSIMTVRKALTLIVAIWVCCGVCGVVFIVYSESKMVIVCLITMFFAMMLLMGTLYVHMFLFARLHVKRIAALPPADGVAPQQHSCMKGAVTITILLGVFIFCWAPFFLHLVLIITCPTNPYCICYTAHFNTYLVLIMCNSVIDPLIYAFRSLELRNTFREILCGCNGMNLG

COPPER(II) OXIDE
Not Active: IC50 (Melanocortin receptor 3) | Ki (Melanocortin receptor 3) | IC50 [1] | Ki [1] | IC50 [2] | Ki [2] | IC50 [3] | Ki [3] | IC50 [4] | Ki [4] | IC50 [5] | Ki [5] | IC50 [6] | Ki [6] | IC50 (Thromboxane-A synthase) | Ki (Thromboxane-A synthase)

CC12CCC(CC1)C(C)(C)O2 [EUCALYPTOL]
Not Active: IC50 (Melanocortin receptor 3) | IC50 [1] | Ki [1] | IC50 [2] | IC50 [3] | IC50 [4] | IC50 [5] | IC50 [6] | IC50 (Thromboxane-A synthase)

Reference: ChEMBL document CHEMBL1909046, “DrugMatrix in vitro pharmacology data”
